Laboratory results published in the supplement of paper PMC10307832.

What follows are cell lines tested with Cn1nnc2c(C(N)=O)ncn2c1=O [Temozolomide] + CC(=O)Nc1cccc(-n2c(=O)n(C3CC3)c(=O)c3c(Nc4ccc(I)cc4F)n(C)c(=O)c(C)c32)c1 [Trametinib] (partner 0.02 µM) (assay: relative viability (nuclei count vs DMSO), 5 days (fraction); higher = more cells survive). Details: first compound 20 µM.
Summary of the method: (§1)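 Lung cancer cell lines, seeded in 1536-well plates, were treated the following day by pin tool with a single drug or with five library-drug doses (not always all listed) in √10 steps on top of a fixed anchor-drug dose. Cells were fixed and nuclei stained in one step after 5 days, and nuclei were counted. Relative viability is the nuclei count for treated wells divided by that for vehicle wells, reported as medians of duplicate plates.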

Point of comparison: NCI-H2085, relative viability 0.581. Against it:
- NCI-H1437 — lower, 0.565
- NCI-H1651 — higher, 0.84
- NCI-H1666 — higher, 0.732
- NCI-H1734 — higher, 0.692
- NCI-H1755 — lower, 0.549
- NCI-H1792 — lower, 0.517
- NCI-H1793 — lower, 0.414
- NCI-H1915 — lower, 0.201
- NCI-H1944 — lower, 0.362
- NCI-H1975 — lower, 0.413
- NCI-H1993 — lower, 0.552
- NCI-H2009 — lower, 0.265
- NCI-H2023 — lower, 0.518
- NCI-H2087 — lower, 0.172
- NCI-H2126 — higher, 0.623

Each cell line was assayed with C[C@@H](C(=O)N[C@@H](C1CCCCC1)C(=O)N2CCC[C@H]2C(=O)N[C@@H]3[C@@H](CC4=CC=CC=C34)OCC#CC#CCO[C@@H]5CC6=CC=CC=C6[C@@H]5NC(=O)[C@@H]7CCCN7C(=O)[C@H](C8CCCCC8)NC(=O)[C@H](C)NC)NC [AZD5582] + Cc1nc(NC(=O)N2CCC[C@H]2C(N)=O)sc1-c1ccnc(C(C)(C)C(F)(F)F)c1 [Alpelisib] (partner 2 µM) in the same assay as above. Details: first compound 0.001581 µM.
Summary of the method: as §1

Point of comparison: NCI-H1792, relative viability 0.616. Against it:
- LOU-NH91 — higher, 0.752
- LU99A — lower, 0.554
- LXF-289 — higher, 1
- NCI-H23 — lower, 0.446
- NCI-H322M — higher, 0.796
- NCI-H358 — higher, 0.725
- NCI-H441 — lower, 0.511
- NCI-H460 — lower, 0.401
- NCI-H520 — higher, 0.97
- NCI-H596 — lower, 0.554
- NCI-H647 — higher, 0.957
- NCI-H650 — higher, 1.06
- NCI-H661 — lower, 0.592
- NCI-H727 — lower, 0.578
- NCI-H838 — higher, 0.89
- NCI-H1355 — higher, 0.724
- NCI-H1395 — higher, 1.08
- NCI-H1437 — higher, 0.968
- NCI-H1651 — higher, 1.03
- NCI-H1666 — higher, 0.851
- NCI-H1734 — higher, 0.729
- NCI-H1755 — higher, 0.875
- NCI-H1793 — higher, 0.637
- NCI-H1915 — higher, 1.01
- NCI-H1944 — higher, 0.834
- NCI-H1975 — higher, 0.725
- NCI-H1993 — higher, 0.706
- NCI-H2009 — higher, 1.12
- NCI-H2023 — lower, 0.562
- NCI-H2085 — higher, 1
- NCI-H2087 — higher, 1.08
- NCI-H2126 — higher, 0.785

Same assay, conditions: first compound 0.005 µM

Point of comparison: LXF-289, relative viability 1.04. Against it:
- LOU-NH91 — lower, 0.747
- LU99A — lower, 0.594
- NCI-H23 — lower, 0.456
- NCI-H322M — lower, 1.03
- NCI-H358 — lower, 1.02
- NCI-H441 — lower, 0.709
- NCI-H460 — lower, 0.445
- NCI-H520 — lower, 0.89
- NCI-H596 — lower, 0.33
- NCI-H647 — lower, 0.943
- NCI-H650 — lower, 0.934
- NCI-H661 — lower, 0.524
- NCI-H727 — lower, 0.627
- NCI-H838 — lower, 0.97
- NCI-H1355 — lower, 0.832
- NCI-H1395 — higher, 1.19
- NCI-H1437 — lower, 0.967
- NCI-H1651 — lower, 1.02
- NCI-H1666 — lower, 0.833
- NCI-H1734 — lower, 0.761
- NCI-H1755 — lower, 0.918
- NCI-H1792 — lower, 0.738
- NCI-H1793 — lower, 0.856
- NCI-H1915 — higher, 1.06
- NCI-H1944 — higher, 1.05
- NCI-H1975 — lower, 0.894
- NCI-H1993 — lower, 0.669
- NCI-H2009 — higher, 1.15
- NCI-H2023 — lower, 0.538
- NCI-H2085 — lower, 0.987
- NCI-H2087 — lower, 1.01
- NCI-H2126 — lower, 0.766

Same assay, conditions: first compound 0.01581 µM

Point of comparison: NCI-H661, relative viability 0.557. Against it:
- LOU-NH91 — higher, 0.787
- LU99A — lower, 0.499
- LXF-289 — higher, 0.988
- NCI-H23 — higher, 0.7
- NCI-H322M — lower, 0.515
- NCI-H358 — higher, 0.89
- NCI-H441 — higher, 0.594
- NCI-H460 — lower, 0.536
- NCI-H520 — higher, 0.838
- NCI-H596 — lower, 0.538
- NCI-H647 — higher, 1.19
- NCI-H650 — higher, 0.997
- NCI-H727 — lower, 0.441
- NCI-H838 — higher, 0.907
- NCI-H1355 — higher, 0.82
- NCI-H1437 — higher, 0.875
- NCI-H1651 — higher, 0.855
- NCI-H1666 — higher, 1.08
- NCI-H1734 — higher, 0.705
- NCI-H1755 — higher, 0.874
- NCI-H1792 — higher, 0.651
- NCI-H1793 — higher, 0.69
- NCI-H1915 — higher, 1.09
- NCI-H1944 — higher, 0.793
- NCI-H1975 — higher, 0.611
- NCI-H1993 — higher, 0.647
- NCI-H2009 — higher, 1.17
- NCI-H2023 — higher, 0.567
- NCI-H2085 — higher, 0.928
- NCI-H2087 — higher, 1.13
- NCI-H2126 — higher, 0.695

Same assay, conditions: first compound 0.05 µM

Point of comparison: NCI-H1993, relative viability 0.671. Against it:
- LOU-NH91 — higher, 0.775
- LU99A — lower, 0.611
- LXF-289 — higher, 1.07
- NCI-H23 — lower, 0.419
- NCI-H322M — higher, 0.889
- NCI-H358 — higher, 1.02
- NCI-H441 — lower, 0.615
- NCI-H460 — lower, 0.621
- NCI-H520 — higher, 1.07
- NCI-H596 — lower, 0.304
- NCI-H647 — higher, 1.11
- NCI-H650 — higher, 0.863
- NCI-H661 — lower, 0.521
- NCI-H727 — lower, 0.556
- NCI-H838 — higher, 1.18
- NCI-H1355 — higher, 0.852
- NCI-H1395 — higher, 1.39
- NCI-H1437 — higher, 1.04
- NCI-H1651 — higher, 1.15
- NCI-H1666 — higher, 1.03
- NCI-H1734 — higher, 0.903
- NCI-H1755 — higher, 0.996
- NCI-H1792 — higher, 0.939
- NCI-H1793 — higher, 0.887
- NCI-H1915 — higher, 1.13
- NCI-H1944 — higher, 1.11
- NCI-H1975 — higher, 0.964
- NCI-H2009 — higher, 1.18
- NCI-H2023 — lower, 0.609
- NCI-H2085 — higher, 1.01
- NCI-H2087 — higher, 1.19
- NCI-H2126 — higher, 0.762

These cell lines were tested with Cn1nnc2c(C(N)=O)ncn2c1=O [Temozolomide] + C[C@]1(O)C[C@@H](c2nc(-c3ccc4ccc(-c5ccccc5)nc4c3)c3c(N)nccn32)C1 [Linsitinib] (partner 1 µM) in the same assay as above. Details: first compound 0.2 µM.
Summary of the method: as §1

Point of comparison: NCI-H460, relative viability 0.959. Against it:
- LOU-NH91 — lower, 0.534
- LU99A — lower, 0.595
- LXF-289 — lower, 0.933
- NCI-H23 — lower, 0.596
- NCI-H358 — lower, 0.576
- NCI-H441 — lower, 0.651
